Assay results: the supplement of paper PMC10307832

Tests used:
Assay in all cases: relative viability (nuclei count vs DMSO), 5 days (fraction); higher = more cells survive
[1] = compound: N[C@@H]1CCCN(c2c(/C=C3\SC(=O)NC3=O)cccc2-c2ccccc2)C1 [AZD1208] + CC(=O)c1c(C)c2cnc(Nc3ccc(N4CCNCC4)cn3)nc2n(C2CCCC2)c1=O [Palbociclib] (partner 0.5 µM)
Procedure, shortened: (§1)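 Lung cancer cell lines were seeded in 1536-well plates and dosed by pin tool the next day, with either a single drug or a fixed anchor-drug dose combined with five library-drug doses (not always all listed) spaced in √10 steps. Five days later, one step fixed the cells and stained their nuclei (final 0.05% Triton X-100, 1% formaldehyde, 1 ug/ml Hoechst), and nuclei were counted on 4× images. Relative viability is the nuclei count in treated wells divided by the count in vehicle wells, and each value is the median of duplicate plates.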

[2] = compound: N[C@@H]1CCCN(c2c(/C=C3\SC(=O)NC3=O)cccc2-c2ccccc2)C1 [AZD1208] + N=C(N)NC(=N)NCCc1ccccc1 [Phenformin] (partner 250 µM)
Procedure, shortened: as §1

[3] = compound: N[C@@H]1CCCN(c2c(/C=C3\SC(=O)NC3=O)cccc2-c2ccccc2)C1 [AZD1208] + CCNC(=O)c1noc(-c2cc(C(C)C)c(O)cc2O)c1-c1ccc(CN2CCOCC2)cc1 [Luminespib] (partner 0.01 µM)
Procedure, shortened: as §1

[4] = compound: CN1CCN(CC1)C2=CC(=C(C=C2)NC3=NC(=C(S3)C(=O)C4=C(C=CC=C4Cl)Cl)N)OC [XMD14-99] + CS(=O)(=O)CCNCc1ccc(-c2ccc3ncnc(Nc4ccc(OCc5cccc(F)c5)c(Cl)c4)c3c2)o1 [Lapatinib] (partner 2 µM)
Procedure, shortened: as §1

Cell Line	relative viability ([1]; first compound 0.08 µM)	relative viability ([1]; first compound 0.253 µM)	relative viability ([1]; first compound 0.8 µM)	relative viability ([1]; first compound 2.53 µM)	relative viability ([1]; first compound 8 µM)	relative viability ([2]; first compound 0.08 µM)	relative viability ([2]; first compound 0.253 µM)	relative viability ([2]; first compound 0.8 µM)	relative viability ([2]; first compound 2.53 µM)	relative viability ([2]; first compound 8 µM)	relative viability ([3]; first compound 0.08 µM)	relative viability ([3]; first compound 0.253 µM)	relative viability ([3]; first compound 0.8 µM)	relative viability ([3]; first compound 2.53 µM)	relative viability ([3]; first compound 8 µM)	relative viability ([4]; first compound 0.08 µM)	relative viability ([4]; first compound 0.8 µM)	relative viability ([4]; first compound 2.53 µM)	relative viability ([4]; first compound 8 µM)
NCI-H838	0.21	0.231	0.209	0.187	0.201	0.524	0.704	0.425	0.583	0.485	0.294	0.211	0.252	0.327	0.22	0.947	0.993	0.851	0.69
NCI-H2126	0.363	0.362	0.349	0.33	0.382	0.506	0.507	0.493	0.545	0.466	0.9	0.924	0.848	0.799	0.858	0.77	0.756	0.765	0.701
BEN	0.565	0.446	0.472	0.505	0.431	0.269	0.267	0.244	0.259	0.269	0.254	0.271	0.285	0.244	0.303	0.738	0.825	0.661	0.627
EKVX	0.383	0.41	0.336	0.332	0.419	0.23	0.247	0.258	0.256	0.228	0.981	0.845	0.888	0.804	0.924	0.187	0.18	0.193	0.163
LXF-289	0.587	0.639	0.583	0.622	0.635	0.507	0.55	0.472	0.528	0.518	0.601	0.584	0.659	0.607	0.527	0.923	0.885	0.866	0.704
ABC-1	0.815	0.631	0.474	0.563	0.444	0.232	0.238	0.212	0.229	0.2	0.564	0.632	0.415	0.383	0.632	1.05	1.18	1.17	1.05
NCI-H661	0.418	0.394	0.428	0.414	0.4	0.264	0.286	0.276	0.295	0.268	0.977	1.02	0.955	0.939	0.998	0.391	0.521	0.425	0.402
NCI-H1650	0.331	0.401	0.311	0.323	0.35	0.416	0.424	0.414	0.337	0.289	0.208	0.151	0.188	0.211	0.204	0.702	1.03	0.725	0.619
NCI-H2087	0.257	0.192	0.276	0.241	0.219	0.46	0.554	0.41	0.481	0.336	0.166	0.145	0.14	0.141	0.171	1.07	1.08	0.842	0.702
NCI-H1793	0.293	0.305	0.273	0.304	0.288	0.314	0.453	0.342	0.307	0.274	0.181	0.17	0.14	0.176	0.152	0.646	0.729	0.647	0.633
LC-2-ad	0.591	0.52	0.528	0.501	0.5	0.585	0.604	0.52	0.534	0.519	0.943	0.984	0.968	0.962	1.02	0.955	0.926	0.908	0.764
COR-L 105	0.37	0.344	0.379	0.38	0.43	0.476	0.567	0.478		0.477	0.728	0.781	0.826		0.855	0.404	0.293	0.354	0.32
NCI-H1355	0.396	0.37	0.372	0.385	0.318	0.479	0.469	0.416	0.447	0.392	0.708	0.598	0.611	0.699	0.525	1.03	0.958	1.01	0.61
H3255	0.299	0.307	0.333	0.314	0.326	0.37	0.353	0.372	0.401	0.405	0.872	0.982	0.698	0.901	0.842	0.234	0.252	0.326	0.164
NCI-H2009	0.196	0.202	0.221	0.208	0.181	0.481	0.489	0.491	0.489	0.441	1.1	1.04	1.06	1.09	1.05	1.03	0.997	0.834	0.666
NCI-H1734	0.312	0.32	0.313	0.325	0.255	0.392	0.426	0.336	0.293	0.264	0.18	0.197	0.187	0.159	0.168	1.01	0.997	1.05	0.825
HOP-62	0.483	0.503	0.431	0.439	0.469	0.689	0.745	0.664	0.628	0.613	0.918	1.07	0.904	0.916	0.956	1.22	1.06	0.946	0.819
